Laboratory results: paper PMC3430621, “HPLC–MS/MS Analysis of a Traditional Chinese Medical Formulation of Bu-Yang-Huan-Wu-Tang and Its Pharmacokinetics after Oral Administration to Rats” (PLoS ONE, 2012)
Read-outs that look alike come from different tables or passages of the source.

Columns and labels:
[1] = design: method as in PMID 17931809; details: cited from earlier work
[2] = Pharmacokinetics in conscious freely moving rats after oral administration of BYHWT extract (HPLC-MS/MS of plasma); assay type: in vivo, Sprague-Dawley rats; details: rat plasma, BYHWT extract 10 g/kg p.o.; for Cmax / Tmax / half-life: male, Sprague-Dawley, po, n = 6; for Cmax: read-out: Cmax; for Tmax: read-out: Tmax (converted); for half-life: read-out: t1/2
Description: The protocol listed below has been reviewed and approved by the Institutional Animal Care and Use Committee (IACUC; approval number 1010409) by the Institutional Animal Experimentation Committee of the National Yang-Ming University. Male pathogen-free Sprague-Dawley rats (250±50 g body weight) were obtained from the Laboratory Animal Center of National Yang Ming University. The animals had free access to food (Laboratory rodent diet 5P14, PMI Feeds, Richmond, IN, USA) and water was allowed at all times. All animal experiments followed the National Yang-Ming University guidelines and procedures for the care of laboratory animals. […] Experimental rats were initially anesthetized with pentobarbital (50 mg/kg, i.p.), and polyethylene tubing was implanted in the right jugular vein for blood sampling. The tube crossed the subcutaneous tissue and was fixed at its exit from the dorsal neck region. The patency tubing was maintained by filling with heparinized saline (20 units/mL). After surgery, the rats were placed in experimental cages and allowed to recuperate for one day. The rats were kept fasted for 12 h and water were available ad libitum before the BYHWT administration. […] In our study, the dose of BYHWT (10 g/kg) was appropriate for oral administration in rats. […] The condensed blood collection in the absorption phase is to figure out the maximum concentration and the time when it reaches the maximum concentration. The time points in the elimination phase are not close. This strategy is commonly used in the pharmacokinetic studies but the total blood consumption should not be over 20% of body blood. In these experimental rats, the total blood sampling volume is within 20% during 12 h. Plasma was separated by centrifuging the blood sample at 6000 rpm for 10 min at 4°C. […] The samples were vortexed and centrifuged at 16,100×g for 10 min. In our micro-analysis, less than 200 μL is needed. Actually, the collected blood volume is around 120-150 μL for each time point. After centrifugation, the plasma samples (50 μL) were vortex-mixed with 100 μL of acetonitrile. The supernatants were collected and filtered. Around 20 μL aliquot of the supernatants was transferred into the vial for analysis by HPLC-MS/MS system. The acetonitrile but not the real sample was used in the needle pre-wash standard procedure [19]. The LC-MS/MS system consisted of an Agilent 1100 series LC with automatic liquid chromatographic sampler, injector, bi-pump and degasser; and Applied Biosystems/MDS Sciex API 3000 tandem quadrupole mass spectrometry equipped with electrospray ionization (ESI) interface using the following parameters: nebulizer gas (NEB):10, curtain gas (CUR): 7, collisionally activated dissociation gas (CAD): 12, ionspray voltage (IS): 5000 V, turbo ionspray temperature (TEM): 450°C. Nitrogen was used in all cases. The mass spectrometer was operated in the positive ion detection mode. […] The following linear gradient program was applied to the analyte with the mobile phase consisting of methanol (0.1% formic acid, solvent A) and NH4OAc (0.1% formic acid, solvent B): 0-1 min: 30-70% A; 1-2 min 70-90%; 2-8 min: 90-90%; 8-9 min: 90-30%, 9-18 min: 30-30%, v/v. […] The flow rate was maintained at […]. Pharmacokinetic parameters including maximum plasma concentration (Cmax), time to reach the maximum concentrations (Tmax), half-life (t1/2), area under concentration-time curve (AUC) and oral clearance (CL) were estimated by a non-compartmental analysis using the pharmacokinetic program, WinNonlin Standard Edition Version 1.1 (Scientific Consulting, Apex, NC, USA). All results were expressed as average mean ± standard deviation (S.D.). ANOVA was used to evaluate differences, and a value of P<0.05 was taken as statistically significant.

[3] = Stability of the analytes in rat plasma samples (freeze-thaw, short-term, long-term, autosampler); assay type: in vitro ADME; details: n = 3; for Stability (%) Autosampler stability: autosampler 8°C 12 h; for Stability (%) Short-term stability: room temperature 6 h; for Stability (%) Freeze-thaw stability: three freeze-thaw cycles; for Stability (%) Long-term stability: −20°C 14 days
Procedure: Stability was also assessed using the low, medium and high concentrations of analytes. Freeze-thaw stability was assessed over three freeze-thaw cycles. Short-term stability was determined by placing the samples at room temperature for 6 h. Long-term stability was evaluated by analyzing samples kept at −20°C for 14 days. Autosampler stability was determined by maintaining the samples at the autosampler temperature (8°C) for 12 h. All stabilities were calculating as the ratio of average concentration and freshly prepared samples.

Row | Structure (SMILES) | absorption phase in the plasma concentration-time curve [2] | Stability (%) Autosampler stability ([3]; concentration 1 (µg/mL)) [%] | Stability (%) Short-term stability ([3]; concentration 1 (µg/mL)) [%] | Stability (%) Freeze-thaw stability ([3]; concentration 1 (µg/mL)) [%] | Stability (%) Long-term stability ([3]; concentration 1 (µg/mL)) [%] | Stability (%) Autosampler stability ([3]; concentration 10 (µg/mL)) [%] | Stability (%) Short-term stability ([3]; concentration 10 (µg/mL)) [%] | Stability (%) Freeze-thaw stability ([3]; concentration 10 (µg/mL)) [%] | Stability (%) Long-term stability ([3]; concentration 10 (µg/mL)) [%] | Stability (%) Autosampler stability ([3]; concentration 100 (µg/mL)) [%] | Stability (%) Short-term stability ([3]; concentration 100 (µg/mL)) [%] | Stability (%) Freeze-thaw stability ([3]; concentration 100 (µg/mL)) [%] | Stability (%) Long-term stability ([3]; concentration 100 (µg/mL)) [%] | Cmax [2] [µg/mL] | Tmax [2] [h] | half-life [2] [h] | other results
1 | COc1cc2c(c(OC)c1OC)-c1ccc(OC)c(=O)cc1[C@@H](NC(C)=O)CC2 [colchicine] |  |  |  |  |  |  |  |  |  |  |  |  |  |  |  |  | AUC ([1]; donor rats): 847.7 ± 141.0 µg·min/mL; AUC ([1]; recipient rats): 55.5 ± 29.2 µg·min/mL
2 | CC(C)(O)[C@@H]1CC[C@](C)([C@H]2[C@@H](O)C[C@@]3(C)[C@@H]4C[C@H](O[C@@H]5O[C@H](CO)[C@@H](O)[C@H](O)[C@H]5O)[C@H]5C(C)(C)[C@@H](O[C@@H]6OC[C@@H](O)[C@H](O)[C@H]6O)CC[C@@]56C[C@@]46CC[C@]23C)O1 [Astragaloside IV, astragaloside IV] | double-peak absorption phase | 3.8±9.8 | 12±15 | −3.2±5.0 | −17±5.3 | 3.3 | 4.7±6.2 | −4.1±3.4 | −6.3±8.8 | −8.6±12 | 1.6±9.1 | 6.1±0.4 | 2.1±13.5 |  |  |  | Cmax ([2]; in vivo): 0.1 ± 0.016 µg/mL; Tmax ([2]; in vivo): 0.583 h; half-life ([2]; in vivo): 2.83 ± 0.138 h
3 | COc1ccc(-c2coc3cc(O[C@@H]4O[C@H](CO)[C@@H](O)[C@H](O)[C@H]4O)ccc3c2=O)cc1 [Ononin, ononin] | single and plateau absorption phase | 4.7±7.7 | 12±6.3 | 3.9±6.4 | −7.2±10 | −7.0±1.4 | −12±4.6 | −2.5±7.3 | −6.2±2.9 | 8.1±3.8 | 6.7±2.1 | 4.2±1.3 | 3.2±3.9 | 0.019 ± 0.0045 | 0.583 | 2.23 ± 0.16 | 
4 | CCC/C=C1\OC(=O)C2=C1CCC=C2 [Ligustilide, ligustilide] | double-peak absorption phase | 2.0±10 | 14±11 | 8.7±5.9 | 6.7±10 | 13±7.2 | 11±10 | 2.7±2.2 | 5.0±14 | −1.6±10 | 12±7.5 | 6.5±1.4 | 23±12 | 0.0078 ± 0.0002 | 0.75 | 4.45 ± 0.02 | 
